In patent US12172969B2 (EVOFEM BIOSCIENCES, INC., priority 2018, dated 2024):

Assays:
cDNA-expressed CYP2C8 = target: T1, cDNA-expressed CYP2C8 (Homo sapiens, UniProt P10632); assay: Metabolism by cDNA-expressed CYP2C8, parent remaining; settings: 10 μM; for depletion by cDNA-expressed CYP2C8: 120 minutes
T1 sequence (P10632 1-490): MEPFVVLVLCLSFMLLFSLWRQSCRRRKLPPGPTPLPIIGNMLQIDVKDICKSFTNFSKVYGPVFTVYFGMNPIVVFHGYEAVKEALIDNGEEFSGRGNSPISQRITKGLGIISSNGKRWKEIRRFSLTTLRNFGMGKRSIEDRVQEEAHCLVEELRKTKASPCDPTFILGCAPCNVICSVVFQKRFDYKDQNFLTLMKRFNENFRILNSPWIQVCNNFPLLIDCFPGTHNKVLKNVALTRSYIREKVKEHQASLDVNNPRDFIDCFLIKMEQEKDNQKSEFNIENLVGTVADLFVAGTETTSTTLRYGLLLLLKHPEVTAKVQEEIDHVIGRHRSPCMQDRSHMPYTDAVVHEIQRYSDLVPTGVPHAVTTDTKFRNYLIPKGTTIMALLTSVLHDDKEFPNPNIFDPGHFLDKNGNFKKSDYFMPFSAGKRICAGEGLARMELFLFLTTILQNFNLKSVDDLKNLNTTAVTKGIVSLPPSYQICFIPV
Experimental: (§1) At two time points (0 and 120 min), the reaction was stopped by removing an aliquot and combining it with an equal volume of cold acetonitrile containing an internal standard (labetalol) and placement on ice. Samples were centrifuged to pellet the protein and the supernatant was frozen at −20° C. for subsequent analysis by LC-MS/MS.
(§2) Protein concentrations were constant for all isoforms within an experiment and standardized by the addition of control microsomes. Incubations were performed in duplicate. Incubations with vector control enzyme preparations and without enzyme source were included as negative controls.
(§3) The fraction of parent compound remaining compared to 0 min was determined based on peak area ratio (analyte/internal standard).

cDNA-expressed CYP2C9 = cDNA-expressed CYP2C9 (Homo sapiens, UniProt P11712); assay: Metabolism by cDNA-expressed CYP2C9, parent remaining; settings: 10 μM; for depletion by cDNA-expressed CYP2C9: 120 minutes
cDNA-expressed CYP2C9, sequence (P11712 whole entry): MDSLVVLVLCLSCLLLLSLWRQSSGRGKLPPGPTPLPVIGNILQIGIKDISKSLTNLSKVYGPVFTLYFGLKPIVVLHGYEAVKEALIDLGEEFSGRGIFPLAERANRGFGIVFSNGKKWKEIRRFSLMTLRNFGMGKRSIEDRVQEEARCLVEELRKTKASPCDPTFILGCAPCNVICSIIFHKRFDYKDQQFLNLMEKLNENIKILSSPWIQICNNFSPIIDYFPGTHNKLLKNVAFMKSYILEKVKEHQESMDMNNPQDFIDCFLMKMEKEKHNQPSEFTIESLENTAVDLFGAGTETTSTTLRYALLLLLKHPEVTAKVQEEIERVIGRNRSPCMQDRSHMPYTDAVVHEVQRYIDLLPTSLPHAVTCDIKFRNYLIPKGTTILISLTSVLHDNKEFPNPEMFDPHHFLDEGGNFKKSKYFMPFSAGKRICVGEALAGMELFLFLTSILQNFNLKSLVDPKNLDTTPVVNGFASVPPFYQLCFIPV
Experimental: as §1, §2, §3

[1] = in vivo; cited from earlier work
[2] = system: cDNA-expressed CYP1A2, CYP2A6, CYP2B6, CYP2C8, CYP2C9, CYP2C19, CYP2D6, CYP2E1, CYP3A4, and CYP3A5; assay: Metabolism by cDNA-expressed human CYP enzymes (all isoforms), parent remaining by LC-MS/MS; settings: 1.0 μM and 10 μM, 120 minutes incubation, 37° C., compared to 0 min
Experimental: as §1, §2
All other positive controls were assayed at one concentration in duplicate in accordance with the methods described above. The percent of parent remaining at the end of the incubation was compared to 0 min based on the peak area ratio of the substrate and internal standard.
as §3

Row | Compound | percent of parent remaining (cDNA-expressed CYP2C8; human, 2 h, pH 7.4) [%] | percent of parent remaining (cDNA-expressed CYP2C9; human, 2 h, pH 7.4) [%] | excreted intact in the urine [1] [%] | average percent of parent compound remaining for all isoforms and concentrations [2] | depletion by cDNA-expressed CYP2C8 (cDNA-expressed CYP2C8) | depletion by cDNA-expressed CYP2C9 (cDNA-expressed CYP2C9)
1 | Cc1ncc([N+](=O)[O-])n1CC(C)O (stereo not drawn) [secnidazole, 1-(2-methyl-5-nitro-1H-imidazol-1-yl) propan-2-ol, reference compound] | 82 | 79 | 50 | – | – | –
2 | α,2-dimethyl-5-nitro-1H-imidazole-1-ethanol-d6 [secnidazole-d6] | – | – | – | less than 100% | did not demonstrate any depletion | did not demonstrate any depletion
3 | α,2-dimethyl-5-nitro-1H-imidazole-1-ethanol-d3 [secnidazole-d3] | – | – | – | greater than 96% | did not demonstrate any depletion | did not demonstrate any depletion
